Laboratory results from article PMC8409943, “Study on mechanism of low bioavailability of black tea theaflavins by using Caco-2 cell monolayer” (Drug Delivery, 2021).

How the values were obtained:
Caco-2 cells = experiment: Intracellular accumulation of theaflavin monomers; details: 200 μM theaflavins, 2 h incubation, 37 °C
Protocol: Caco-2 cells were seeded at a density of 8 × 10^4 cells per well in 6-well plates (Ni et al., [2020]). After differentiation over a period of 21 days, cells were incubated with 2.0 mL of 200 μM theaflavins at 37 °C. After 2 h incubation, phosphate buffer was added to wash cells in the plate. Then, cell lysates were prepared with RIPA lysis buffer containing 1 mM PMSF as a protease inhibitor and centrifugated at 12,000 rpm for 30 min. Total protein contents were quantified using a BCA estimation kit according to the manufacturer’s instructions (Beyotime). Theaflavins were quantified by HPLC analysis and the intracellular accumulation was expressed as µg theaflavin/mg protein.
Theaflavins were characterized by high performance liquid chromatography (HPLC, Agilent 1100VL, Agilent Technologies Inc., CA, USA). Briefly, samples were extracted with 70% methanol, centrifuged at 685 × g for 10 min, and filtered through a 0.45 μm membrane (Nylon 66). […] Samples were eluted with a gradient of solvent A (100 mL water with 9 mL acetonitrile and 2 mL acetic acid) and B (100 mL acetonitrile with 17.8 mL water and 2 mL acetic acid) as follows: 0–5 min, 95% A; 5–10 min, 90% A; 10–20 min, 70% A; 20–25 min, 65% A; 25–30 min, 70% A; 30–35 min, 100% A. Theaflavins were detected using an ultraviolet detector at a wavelength of 278 nm.

MRP1 = experiment: Quantitative real-time PCR, mRNA level of MRP1; assay type: cell-based, Human; details: Caco-2 cells, 200 μM, 2 h, vs control
Protocol: (§1) Cell culture and treatment were performed as described above in 2.6. Total RNA was extracted from Caco-2 cells by the cell RNA extraction kit, and then reverse-transcribed by the cDNA synthesis kit. Gene amplification and quantitative detection were performed as previously described (Ai et al., [2019]). Target mRNA levels were normalized to β-actin mRNA levels. Data were calculated by the 2^−ΔΔCT method.

MRP3 = experiment: Quantitative real-time PCR, mRNA level of MRP3; assay type: cell-based, Human; details: Caco-2 cells, 200 μM, 2 h, vs control
Protocol: as §1

P-gp [1] = experiment: Quantitative real-time PCR, mRNA level of P-gp; assay type: cell-based, Human; details: Caco-2 cells, 200 μM, 2 h, vs control
Protocol: as §1

P-gp [2] = experiment: Western blot, protein level of P-gp; assay type: cell-based, Human; details: Caco-2 cells, 200 μM, 2 h, normalized to β-actin, vs control
Protocol: Cell lysates were prepared with RIPA lysis buffer. […] Cell protein (50 μg) was loaded onto SDS polyacrylamide gel (5% stacking gel; 8% separating gel) and separated by electrophoresis for 1.5 h at 20 mA. Next, the separated proteins were transferred onto the PVDF membrane in ice bath for 1.5 h at 120 mA, followed by blocking the membrane with 5% nonfat milk in Tris-buffered saline containing 0.1% Tween-20 (TBST) for 1 h at room temperature. After blocking, the blots were incubated overnight at 4 °C with the primary antibody of P-gp, MRP1, MRP2, MRP3, BCRP (1:200) or β-actin (1:40,000), followed by washing with TBST and incubation for 1 h at room temperature with HRP-conjugated goat anti-rabbit (1:3,000). Immunoreactive proteins were visualized by the ECL detection system, band intensity was quantified by Image Lab (Bio-Rad, CA, USA), and the protein contents were normalized to β-actin.

BCRP = experiment: Quantitative real-time PCR, mRNA level of BCRP; assay type: cell-based, Human; details: Caco-2 cells, 200 μM, 2 h, vs control
Protocol: as §1

[3] = 2 h, 200 μM
Protocol: Standard stock solutions of each theaflavin were diluted with HBSS and DMEM respectively, obtaining final test solutions of 200 μM. The recovery rate of theaflavins in HBSS and in DMEM, in the absence of cells, was analyzed by HPLC after incubation at 37 °C for 0.5, 1, 2, 3, 4, 8, 12, and 24 hours, respectively. The recovery rate was used to measure the stability and calculated as follows: (2) Recovery rate=Ct/C0× 100% where Ct is the final concentration at different incubation time (μM); C0, the initial concentration (μM).
Theaflavins were characterized by high performance liquid chromatography (HPLC, Agilent 1100VL, Agilent Technologies Inc., CA, USA). Briefly, samples were extracted with 70% methanol, centrifuged at 685 × g for 10 min, and filtered through a 0.45 μm membrane (Nylon 66). The separation was performed by an ODS reversed-phase column (4.6 mm i.d.×250 mm, SB-C18, Agilent Technologies Inc., CA, USA) at a flow rate of 0.7 mL/min. Chromatographic conditions were slightly modified according to China National Standard (GB/T 30483-2013, GAQSIQ, P. R. China, 2013). Samples were eluted with a gradient of solvent A (100 mL water with 9 mL acetonitrile and 2 mL acetic acid) and B (100 mL acetonitrile with 17.8 mL water and 2 mL acetic acid) as follows: 0–5 min, 95% A; 5–10 min, 90% A; 10–20 min, 70% A; 20–25 min, 65% A; 25–30 min, 70% A; 30–35 min, 100% A. Theaflavins were detected using an ultraviolet detector at a wavelength of 278 nm.

[4] = design: method as in Henning et al., 2006; details: mice treated with decaffeinated black tea (50 mg/g diet) for two weeks; ref Henning et al., 2006; cited from earlier work

O=C(O[C@@H]1Cc2c(O)cc(O)cc2O[C@@H]1c1cc(O)c(O)c2c(=O)c(O)cc([C@H]3Oc4cc(O)cc(O)c4C[C@H]3O)cc12)c1cc(O)c(O)c(O)c1 [TF3’G, theaflavin-3’-gallate]
Contents of theaflavins absorbed in Caco-2 cells (Caco-2 cells): -

O=C(O[C@@H]1Cc2c(O)cc(O)cc2O[C@@H]1c1cc(O)c(=O)c2c(O)c(O)cc([C@H]3Oc4cc(O)cc(O)c4C[C@H]3O)c2c1)c1cc(O)c(O)c(O)c1 [TF3G, theaflavin-3-gallate]
increase of mRNA level of MRP1 (MRP1): 154.97%
increase of mRNA level of MRP3 (MRP3): 34.01%
increase of mRNA level of P-gp (P-gp [1]): 44.45%
increase of protein level of P-gp (P-gp [2]): 23.94%

O=C(O[C@@H]1Cc2c(O)cc(O)cc2O[C@@H]1c1cc(O)c(=O)c2c(O)c(O)cc([C@H]3Oc4cc(O)cc(O)c4C[C@H]3OC(=O)c3cc(O)c(O)c(O)c3)c2c1)c1cc(O)c(O)c(O)c1 [TFDG, theaflavin-3, 3’-digallate]
increase of mRNA level of BCRP (BCRP): 35.49%
degraded due to the structural instability [3]: 11.6%
amount in tissue samples [4]: less than 1 nmol/g tissue
